Like-named read-outs stand apart in the source and are kept apart here.
Biological target: HIV-1 protease (Human immunodeficiency virus type 1 group M subtype B, UniProt P03369)
Assay: biochemical
Method: HIV-1 protease activity was measured at 37° C. using a continuous fluorimetric assay based on the method of Toth et al., (Toth et al., 1990, Int. J. Pept. Res. 36 544-550). The substrate, 2-aminobenzoyl-threonine-isoleucine-norleucine-(p-nitro)-phenylalanine-glutamine-arginine-NH2 (Abz-NF^* -6), was synthesised by solid phase peptide synthesis (Kent et al., 1991, In: Peptides 1990: Proceedings of the Twenty-First European Peptide Symposium (Girault, E. and Andrew, D. eds.) pp 172-173, ESCOM, Leiden). Enzyme activity was measured as the increase in fluorescence intensity upon substrate hydrolysis. The change in fluorescence intensity was monitored with a Perkin Elmer LS50B luminescence spectrometer fitted with a thermostatted micro cuvette holder. Measurements were carried out using an excitation wavelength of 320 nm (bandwith 5 nm) and an emission wavelength of […] (bandwith 5 nm).
Inhibition assays were routinely carried out at pH 6.5 and μ=0.1 M using a single substrate concentration. The assay mixtures contained 50 μM Abz-NF^* -6 in 100 mM 2-(N-morpholino)ethanesulphonate buffer, containing 10% (v/v) glycerol and 50 μg/ml bovine serum albumin, in a total final volume of 400 μl. Where inhibitors had to be dissolved in dimethyl sulphoxide or other organic solvents, the final concentration of solvent in the control and inhibition assays were kept absolutely constant because of the severe inhibitory effect of some solvents on the enzyme activity (Bergman et al., 1992, 17th Ann. Lorne Conf. on Protein Struct. and Funct. Abstr.). In all assays, the reaction was initiated by the addition of 10 μl of enzyme solution.

[1] = Table 1, pH 6.5, 37° C., read-out: IC50
[2] = Table 2, pH 6.5, 37° C., read-out: IC50
[3] = Table 4, rac (R and S isomer together), read-out: IC50
[4] = Table 5, pH 6.5, 37° C., read-out: IC50

## CC[C@H](C)[C@H](NC(=O)[C@@H]1CCCN1C[C@@H](O)[C@@H]1Cc2ccc(cc2)OCCCC(=O)N[C@@H](CC(N)=O)C(=O)N1)C(=O)N[C@H](C(N)=O)C(C)C [Compound 2]
  IC50: 1.58 µM

## CC[C@H](C)[C@H](NC(=O)[C@@H]1CCCN1C[C@H](O)[C@@H]1Cc2ccc(cc2)OCCCC(=O)N[C@@H](CC(N)=O)C(=O)N1)C(=O)N[C@H](C(N)=O)C(C)C [Compound 3, [2(S),11'(S),8'(S)]-2-[11'-[6',9'-dioxo-8'-(ethanamide)-2'-oxa-7',10'-diazabicyclo[11.2.2]heptadeca-13',15',16'-triene]]-1-(N-(S)-prolyl-(S)-isoleucyl-(S)-valine amide)ethan-2-ol]
  IC50: 0.039 µM
  protease inhibition, stated in words: successfully functionally mimicked compound 1

## CC[C@H](C)[C@H](NC(=O)[C@@H]1CCCN1C[C@@H](O)[C@@H]1Cc2ccc(cc2)OCCCC(=O)N[C@@H](CC(N)=O)C(=O)N1)C(N)=O [Compound 4]
read-out: IC50
  IC50: 9.5 µM

## CC[C@H](C)[C@H](NC(=O)[C@@H]1CCCN1C[C@H](O)[C@@H]1Cc2ccc(cc2)OCCCC(=O)N[C@@H](CC(N)=O)C(=O)N1)C(N)=O [Compound 5]
  protease inhibition, stated in words: reduced potency
read-out: IC50
  IC50: 0.85 µM

## NC(=O)C[C@@H]1NC(=O)CCCOc2ccc(cc2)C[C@@H]([C@H](O)CN2CCC[C@H]2C(N)=O)NC1=O [Compound 6]
[1]
  IC50: 55 µM

## NC(=O)C[C@@H]1NC(=O)CCCOc2ccc(cc2)C[C@@H]([C@@H](O)CN2CCC[C@H]2C(N)=O)NC1=O [Compound 7]
  protease inhibition, stated in words: reduced potency
[1]
  IC50: 120 µM

## CC[C@H](C)[C@H](NC(=O)[C@@H]1CCCN1C[C@@H](O)[C@@H]1Cc2ccc(cc2)OCCNCC(=O)N[C@@H](CC(N)=O)C(=O)N1)C(=O)N[C@H](C(N)=O)C(C)C [Compound 8]
[1]
  IC50: 0.7 µM

## CC[C@H](C)[C@H](NC(=O)[C@@H]1CCCN1C[C@H](O)[C@@H]1Cc2ccc(cc2)OCCNCC(=O)N[C@@H](CC(N)=O)C(=O)N1)C(=O)N[C@H](C(N)=O)C(C)C [Compound 9]
[1]
  IC50: 0.037 µM

## CC[C@H](C)[C@H](NC(=O)[C@@H]1CCCN1C[C@@H](O)[C@@H]1Cc2ccc(cc2)OCC(O)C(O)C(=O)N[C@@H](CC(N)=O)C(=O)N1)C(=O)N[C@H](C(N)=O)C(C)C (stereo partly drawn) [Compound 10]
  protease inhibition, stated in words: no improvement was observed in potency compared to 3 or 9
[1]
  IC50: 0.6 µM

## CC[C@H](C)[C@H](NC(=O)[C@@H]1CCCN1C[C@H](O)[C@@H]1Cc2ccc(cc2)OCC(O)C(O)C(=O)N[C@@H](CC(N)=O)C(=O)N1)C(=O)N[C@H](C(N)=O)C(C)C (stereo partly drawn) [Compound 11]
  protease inhibition, stated in words: no improvement was observed in potency compared to 3 or 9
[1]
  IC50: 0.049 µM

## CC[C@H](C)[C@H](NC(=O)[C@@H]1CCCN1C[C@@H](O)[C@@H]1Cc2ccc(cc2)OCCCCC(=O)N[C@@H](CC(N)=O)C(=O)N1)C(=O)N[C@H](C(N)=O)C(C)C [Compound 12]
[2]
  IC50: 0.165 µM

## CC[C@H](C)[C@H](NC(=O)[C@@H]1CCCN1C[C@H](O)[C@@H]1Cc2ccc(cc2)OCCCCC(=O)N[C@@H](CC(N)=O)C(=O)N1)C(=O)N[C@H](C(N)=O)C(C)C [Compound 13]
  protease inhibition, stated in words: no dramatic increase in potency
[2]
  IC50: 0.026 µM

## CCOC(=O)CCCOc1ccc(C[C@H](NC(=O)[C@H](CC(N)=O)NC(C)=O)[C@H](O)CN2CCC[C@H]2C(=O)N[C@H](C(=O)N[C@H](C(N)=O)C(C)C)[C@@H](C)CC)cc1 [Compound 14]
  protease inhibition, stated in words: slightly reduced potency
[2]
  IC50: 0.35 µM

## CCOC(=O)CCCOc1ccc(C[C@H](NC(=O)[C@H](CC(N)=O)NC(C)=O)[C@@H](O)CN2CCC[C@H]2C(=O)N[C@H](C(=O)N[C@H](C(N)=O)C(C)C)[C@@H](C)CC)cc1 [Compound 15]
  protease inhibition, stated in words: slightly reduced potency
[2]
  IC50: 0.045 µM

## CC[C@H](C)[C@H](NC(=O)[C@@H]1CCCN1C[C@@H](O)[C@@H]1CSSCC(NC(C)=O)C(=O)NCC(=O)N[C@@H](CC(N)=O)C(=O)N1)C(=O)N[C@H](C(N)=O)C(C)C (stereo partly drawn) [Compound 16]
  protease inhibition, stated in words: activity was instead reduced
[2]
  IC50: 122 µM

## CC[C@H](C)[C@H](NC(=O)[C@@H]1CCCN1C[C@H](O)[C@@H]1CSSCC(NC(C)=O)C(=O)NCC(=O)N[C@@H](CC(N)=O)C(=O)N1)C(=O)N[C@H](C(N)=O)C(C)C (stereo partly drawn) [Compound 17]
  protease inhibition, stated in words: activity was instead reduced
[2]
  IC50: 28 µM

## CC[C@H](C)[C@H](NC(=O)[C@@H]1CCCN1C[C@H](O)[C@@H]1Cc2ccc(cc2)OCC(=O)N[C@@H](Cc2ccc(O)cc2)C(=O)N[C@@H](CC(N)=O)C(=O)N1)C(=O)N[C@H](C(N)=O)C(C)C [Compound 18]
  IC50: 0.038 µM

## CC[C@H](C)[C@H](NC(=O)[C@@H]1CCCN1C[C@@H](O)[C@@H]1Cc2ccc(cc2)OCC(=O)N[C@@H](Cc2ccc(O)cc2)C(=O)N[C@@H](CC(N)=O)C(=O)N1)C(=O)N[C@H](C(N)=O)C(C)C [Compound 19]
  IC50: 0.165 µM

## CC[C@H](C)[C@H](NC(=O)[C@@H]1CCCN1C[C@H](O)[C@@H]1Cc2ccc(cc2)OCC(=O)N[C@@H](Cc2cnc[nH]2)C(=O)N[C@@H](CC(N)=O)C(=O)N1)C(=O)N[C@H](C(N)=O)C(C)C [Compound 20]
pH 6.5
  IC50: 0.026 µM

## CC[C@H](C)[C@H](NC(=O)[C@@H]1CCCN1C[C@@H](O)[C@@H]1Cc2ccc(cc2)OCC(=O)N[C@@H](Cc2cnc[nH]2)C(=O)N[C@@H](CC(N)=O)C(=O)N1)C(=O)N[C@H](C(N)=O)C(C)C [Compound 21]
pH 6.5
  IC50: 0.339 µM

## CC[C@H](C)[C@H](NC(=O)[C@@H]1CCCN1C[C@H](O)[C@@H]1Cc2ccc(cc2)OCC(=O)N[C@@H](CCCNC(=N)N)C(=O)N[C@@H](CC(N)=O)C(=O)N1)C(=O)N[C@H](C(N)=O)C(C)C [Compound 22]
pH 6.5
  IC50: 0.042 µM

## CC[C@H](C)[C@H](NC(=O)[C@@H]1CCCN1C[C@@H](O)[C@@H]1Cc2ccc(cc2)OCC(=O)N[C@@H](CCCNC(=N)N)C(=O)N[C@@H](CC(N)=O)C(=O)N1)C(=O)N[C@H](C(N)=O)C(C)C [Compound 23]
pH 6.5
  IC50: 0.049 µM

## CC[C@H](C)[C@H](NC(=O)[C@@H]1CCCN1C[C@@H](O)[C@@H]1Cc2ccc(cc2)OCC(=O)N[C@H](CCC(N)=O)C(=O)N[C@@H](CC(N)=O)C(=O)N1)C(=O)N[C@H](C(N)=O)C(C)C [Compound 24]
  IC50: 0.04 µM

## CC[C@H](C)[C@H](NC(=O)[C@@H]1CCCN1C[C@H](O)[C@@H]1Cc2ccc(cc2)OCC(=O)N[C@H](CCC(N)=O)C(=O)N[C@@H](CC(N)=O)C(=O)N1)C(=O)N[C@H](C(N)=O)C(C)C [Compound 25]
  IC50: 0.04 µM

## CC(C)CN(CC(=O)NC(C)(C)C)C[C@@H](O)[C@@H]1Cc2ccc(cc2)OCCCC(=O)N[C@@H](CC(N)=O)C(=O)N1 [Compound 26]
  protease inhibition, stated in words: only μM instead of nM
read-out: IC50
  IC50: 1.7 µM

## CC(C)CN(CC(=O)NC(C)(C)C)C[C@H](O)[C@@H]1Cc2ccc(cc2)OCCCC(=O)N[C@@H](CC(N)=O)C(=O)N1 [Compound 27]
  protease inhibition, stated in words: only μM instead of nM
read-out: IC50
  IC50: 1.9 µM

## CC(C)(C)NC(=O)CN(Cc1ccccc1)C[C@@H](O)[C@@H]1Cc2ccc(cc2)OCCCC(=O)N[C@@H](CC(N)=O)C(=O)N1 [Compound 28]
  IC50: 1.5 µM

## CC(C)(C)NC(=O)CN(Cc1ccccc1)C[C@H](O)[C@@H]1Cc2ccc(cc2)OCCCC(=O)N[C@@H](CC(N)=O)C(=O)N1 [Compound 29]
  IC50: 46 µM

## CC(C)(C)NC(=O)C(Cc1ccccc1)NC[C@@H](O)[C@@H]1Cc2ccc(cc2)OCCCC(=O)N[C@@H](CC(N)=O)C(=O)N1 (stereo partly drawn) [Compound 30]
[3]
  IC50: 70 µM

## CC(C)(C)NC(=O)C(Cc1ccccc1)NC[C@H](O)[C@@H]1Cc2ccc(cc2)OCCCC(=O)N[C@@H](CC(N)=O)C(=O)N1 (stereo partly drawn) [Compound 31]
[3]
  IC50: 70 µM

## CC(C)NC(=O)C(Cc1ccccc1)NC[C@@H](O)[C@@H]1Cc2ccc(cc2)OCCCC(=O)N[C@@H](CC(N)=O)C(=O)N1 (stereo partly drawn) [Compound 32]
[3]
  IC50: 42 µM

## CC(C)NC(=O)C(Cc1ccccc1)NC[C@H](O)[C@@H]1Cc2ccc(cc2)OCCCC(=O)N[C@@H](CC(N)=O)C(=O)N1 (stereo partly drawn) [Compound 33]
[3]
  IC50: 42 µM

## CC(C)CNC(=O)C(Cc1ccccc1)NC[C@@H](O)[C@@H]1Cc2ccc(cc2)OCCCC(=O)N[C@@H](CC(N)=O)C(=O)N1 (stereo partly drawn) [Compound 34]
  IC50: 5.2 µM

## CC(C)CNC(=O)C(Cc1ccccc1)NC[C@H](O)[C@@H]1Cc2ccc(cc2)OCCCC(=O)N[C@@H](CC(N)=O)C(=O)N1 (stereo partly drawn) [Compound 35]
  IC50: 5.2 µM

## CCOC(=O)CCCOc1ccc(C[C@H](NC(=O)[C@H](CC(N)=O)NC(=O)OC(C)(C)C)[C@H](O)CN2CCC[C@H]2C(=O)NC(C)(C)C)cc1 [Compound 36]
  protease inhibition, stated in words: much less active than 38 & 39
[4]
  IC50: 7.05 µM

## CCOC(=O)CCCOc1ccc(C[C@H](NC(=O)[C@H](CC(N)=O)NC(=O)OC(C)(C)C)[C@@H](O)CN2CCC[C@H]2C(=O)NC(C)(C)C)cc1 [Compound 37]
  protease inhibition, stated in words: much less active than 38 & 39
[4]
  IC50: 22 µM

## CC(C)(C)NC(=O)[C@@H]1CCCN1C[C@@H](O)[C@@H]1Cc2ccc(cc2)OCCCC(=O)N[C@@H](CC(N)=O)C(=O)N1 [Compound 38]
read-out: IC50
  IC50: 0.194 µM
